Source: patent US10870634B2, “Histone demethylase inhibitors” (CELGENE QUANTICEL RESEARCH, INC., priority 2016, dated 2020)

Experiments:
[1] = target: T1, Jarid1B (Homo sapiens, UniProt Q9UGL1); experiment: Jarid1B in vitro enzyme inhibition assay (TR-FRET); type: biochemical; conditions: 0.8 nM Jarid1B, 300 nM H3K4me3-biotin peptide, 2 μM alpha-ketoglutaric acid
T1 construct: purchased BPS Bioscience (or custom made by MolecularThroughput) 50121
T1 sequence (Q9UGL1 2-751): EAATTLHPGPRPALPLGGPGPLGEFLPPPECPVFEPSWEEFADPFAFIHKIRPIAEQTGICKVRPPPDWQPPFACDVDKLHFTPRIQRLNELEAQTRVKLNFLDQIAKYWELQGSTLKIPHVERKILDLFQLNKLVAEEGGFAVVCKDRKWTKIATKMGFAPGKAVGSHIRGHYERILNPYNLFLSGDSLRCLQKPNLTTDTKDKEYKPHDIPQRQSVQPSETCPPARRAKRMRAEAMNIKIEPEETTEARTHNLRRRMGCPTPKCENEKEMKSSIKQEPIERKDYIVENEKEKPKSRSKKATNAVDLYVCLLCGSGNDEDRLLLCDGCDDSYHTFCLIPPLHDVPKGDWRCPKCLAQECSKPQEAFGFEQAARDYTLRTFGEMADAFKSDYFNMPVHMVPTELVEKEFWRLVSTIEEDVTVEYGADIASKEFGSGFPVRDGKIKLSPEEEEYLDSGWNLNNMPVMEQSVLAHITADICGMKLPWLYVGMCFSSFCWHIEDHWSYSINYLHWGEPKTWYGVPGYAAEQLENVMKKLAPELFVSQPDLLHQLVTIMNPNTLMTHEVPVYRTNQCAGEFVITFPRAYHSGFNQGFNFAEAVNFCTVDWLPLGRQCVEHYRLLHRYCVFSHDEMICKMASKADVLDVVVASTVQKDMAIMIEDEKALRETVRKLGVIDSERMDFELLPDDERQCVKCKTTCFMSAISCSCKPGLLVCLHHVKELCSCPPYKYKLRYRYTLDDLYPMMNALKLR
From the text: (§1) This assay determines the ability of a test compound to inhibit Jarid1B, JMJD2C and JMJD3 demethylase activity. Baculovirus-expressed Jarid1B (GenBank Accession # NM-006618, AA 2-751) was purchased from BPS Bioscience (Cat #50121) or custom made by MolecularThroughput. Baculovirus-expressed JMJD2C (GenBank Accession # BC143571, AA 2-372) was purchased from BPS Bioscience (Cat #50105). Baculovirus-expressed JMJD3 (GenBank Accession # NM_001080424, AA1043-end) was purchased from BPS Bioscience (Cat #50115).
The ability of test compounds to inhibit the activity of Jarid1B was determined in 384-well plate format under the following reaction conditions: 0.8 nM Jarid1B, 300 nM H3K4me3-biotin labeled peptide (Anaspec cat #64357), 2 μM alpha-ketoglutaric acid in assay buffer of 50 mM HEPES, pH 7.3, 0.005% Brij35, 0.5 mM TCEP, 0.2 mg/ml BSA, 50 μM sodium L-ascorbate, and […] ammonium ironII sulfate. Reaction product was determined quantitatively by TR-FRET after the addition of detection reagent Phycolink Streptavidin-allophycocyanin (Prozyme) and Europium-anti-mono-or di-methylated historic H3 lysine 4 (H3K4me1-2) antibody (PerkinElmer) in the presence of 5 mM EDTA in LANCE detection buffer (PerkinElmer) at a final concentration of 25 nM and 1 nM, respectively.
The assay reaction was initiated by the following: 2 μl of the mixture of 900 nM H3K4me3-biotin labeled peptide and 6 μM alpha-ketoglutaric acid with 2 μl of 11-point serial diluted inhibitor in 3% DMSO was added to each well of the plate, followed by the addition of 2 μl of 2.4 nM Jarid1B to initiate the reaction. […] Plates were read by EnVisionMultilabel Reader in TR-FRET mode (excitation at 320 nm, emission at 615 nm and 665 nm) after 1 hr incubation at room temp. A ratio was calculated (665/615) for each well and fitted to determine inhibition constant (IC50).
(§2) The ability to inhibit demethylase activity was quantified and the respective IC50 value was determined for substituted triazolylpyridine derivative compounds. […]

[2] = target: T2, JMJD3 (Homo sapiens, UniProt O15054); experiment: JMJD3 in vitro enzyme inhibition assay (AlphaScreen); type: biochemical; conditions: 1 nM JMJD3, 250 nM H3K27me3-biotin peptide, 1 μM alpha-ketoglutaric acid
T2 construct: purchased BPS Bioscience 50115
From the text: as §1
The ability of test compounds to inhibit the activity of JMJD3 was determined in 384-well plate format under the following reaction conditions: 1 nM JMJD3, 250 nM H3K27me3-biotin labeled peptide (Anaspec cat #64367), 1 μM alpha-ketoglutaric acid in assay buffer of 50 mM HEPES, pH 7.3, 0.005% Brij35, 0.5 mM TCEP, 0.2 mg/ml BSA, 50 μM sodium L-ascorbate, 5 μM ammonium ironII sulfate. Reaction product is determined quantitatively by AlphaScreen detection after the addition of detection reagents anti-H3K27me1 antibody, 5 μg/ml AlphaScreen® Streptavidin-coated Donor beads, and 5 μg/ml. AlphaScreen® Protein A Acceptor beads in 50 mM HEPES, pH 7.3, 10 mM NaCl, 0.005% Brij35, 10 mM :EDTA, 2 mg/ml BSA.
The assay reaction was initiated by the following: 3 μl of the mixture of 750 nM H3K27me3-biotin labeled peptide and 3 μM alpha-ketoglutaric acid with 3 μl of 11-point serial diluted inhibitor in 3% DMSO are added to each well of 384-well Proxiplate (Perkin Elmer), followed by the addition of 3 μl of 3 nM JMJD3 to initiate the reaction. The reaction mixture was incubated at room temp for 20 min, and terminated by the addition of 3 μl of appropriate dilution of anti-H3K27me1 antibody in 50 mM HEPES, pH 7.3, 10 mM NaCl, 0.005% Brij35, 10 mM EDTA, 2 mg/ml BSA. […] Plates were read by EnVision Multilabel Reader in AlphaScreen mode after minimum 2 hr incubation at room temp. […]
as §2

T2 sequence (O15054 1043-1682 isoform O15054-1): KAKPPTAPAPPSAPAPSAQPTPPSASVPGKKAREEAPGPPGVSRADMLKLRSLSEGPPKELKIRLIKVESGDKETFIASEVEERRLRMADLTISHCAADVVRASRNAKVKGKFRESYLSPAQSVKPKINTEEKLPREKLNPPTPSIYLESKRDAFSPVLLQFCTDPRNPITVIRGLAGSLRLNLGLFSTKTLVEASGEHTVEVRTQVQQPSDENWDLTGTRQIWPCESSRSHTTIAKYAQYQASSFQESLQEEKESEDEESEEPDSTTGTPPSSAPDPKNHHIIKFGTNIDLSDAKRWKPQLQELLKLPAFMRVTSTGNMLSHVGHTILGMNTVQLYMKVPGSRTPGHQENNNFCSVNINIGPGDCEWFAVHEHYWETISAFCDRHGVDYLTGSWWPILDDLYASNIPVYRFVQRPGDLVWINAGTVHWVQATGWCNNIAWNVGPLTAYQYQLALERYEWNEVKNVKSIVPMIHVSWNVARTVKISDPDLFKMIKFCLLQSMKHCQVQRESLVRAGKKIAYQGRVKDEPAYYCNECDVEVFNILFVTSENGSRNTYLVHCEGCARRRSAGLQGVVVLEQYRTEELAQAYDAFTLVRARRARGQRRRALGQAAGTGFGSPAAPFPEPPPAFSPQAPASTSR

IC50 [1] [µM]	IC50 [2] [µM]	Compound
> 10	> 10	Fc1cnccc1-c1nn[nH]c1C(F)(F)F [Example 1, 3-fluoro-4-[5-(trifluoromethyl)-1H-1,2,3-triazol-4-yl]pyridine]
> 10	> 10	Fc1ccc(Cl)cc1Nc1cnccc1-c1nn[nH]c1C(F)(F)F [Example 2, N-(5-chloro-2-fluorophenyl)-4-[5-(trifluoromethyl)-1H-1,2,3-triazol-4-yl]pyridin-3-amine]
> 10	> 10	FC(F)(F)c1[nH]nnc1-c1ccncc1NCC1CCCc2ccccc21 (stereo not drawn) [Example 3, N-[(1,2,3,4-tetrahydronaphthalen-1-yl)methyl]-4-[5-(trifluoromethyl)-1H-1,2,3-triazol-4-yl]pyridine-3-amine]
